Results taken from patent US20190284136A1, “INDOLINE DERIVATIVES” (ViiV HEALTHCARE UK LIMITED, priority 2016, published 2019).

test system: HIV; test: Table 1 IC50 of the examples (assay method not given; patent concerns inhibiting HIV replication); assay type: cell-based; details: Human immunodeficiency virus 1

SMILES	IC50 [nM]
CC(=O)Nc1ccc(C(=O)N2CCc3c2cc(C)c([C@H](OC(C)(C)C)C(=O)O)c3-c2cc(F)c3c(c2C)CCCO3)cc1 (atropisomer, axis not shown) [Example 104, (S)-2-((R)-1-(4-Acetamidobenzoyl)-4-(8-fluoro-5-methylchroman-6-yl)-6-methylindolin-5-yl)-2-(tert-butoxy)acetic acid]	323
Cc1cc2c(c(-c3cc(F)c4c(c3C)CCCO4)c1[C@H](OC(C)(C)C)C(=O)O)CCN2C(=O)c1cc(Cl)cc(C(F)(F)F)c1 (atropisomer, axis not shown) [Example 147, (S)-2-(tert-Butoxy)-2-((R)-1-(3-chloro-5-(trifluoromethyl)benzoyl)-4-(8-fluoro-5-methylchroman-6-yl)-6-methylindolin-5-yl)acetic acid]	17
COC(=O)c1cccc(CN2CCCc3c2cc(C)c(C(OC(C)(C)C)C(=O)O)c3-c2ccc(C)cc2)c1 (stereo not shown) [Example 209, 2-(tert-Butoxy)-2-(1-(3-(methoxycarbonyl)benzyl)-7-methyl-5-(p-tolyl)-1,2,3,4-tetrahydroquinolin-6-yl)acetic acid]	1340
Cc1ccc(-c2c3c(cc(C)c2[C@H](OC(C)(C)C)C(=O)O)N(C(=O)c2ccc(F)c(F)c2)CC3)cc1 [Example 42, (S)-2-(tert-Butoxy)-2-(1-(3,4-difluorobenzoyl)-6-methyl-4-(p-tolyl)indolin-5-yl)acetic acid]	5
Cc1ccccc1C(=O)N1CCc2c1cc(C)c([C@H](OC(C)(C)C)C(=O)O)c2-c1cc(F)c2c(c1C)CCCO2 (atropisomer, axis not shown) [Example 53, (S)-2-(tert-Butoxy)-2-((R)-4-(8-fluoro-5-methylchroman-6-yl)-6-methyl-1-(2-methylbenzoyl)indolin-5-yl)acetic acid]	3
COc1ccc(Cl)cc1C(=O)N1CCc2c1cc(C)c([C@H](OC(C)(C)C)C(=O)O)c2-c1cc(F)c2c(c1C)CCCO2 (atropisomer, axis not shown) [Example 50, (S)-2-(tert-Butoxy)-2-((R)-1-(5-chloro-2-methoxybenzoyl)-4-(8-fluoro-5-methylchroman-6-yl)-6-methylindolin-5-yl)acetic acid]	5
Cc1cc(F)ccc1C(=O)N1CCc2c1cc(C)c([C@H](OC(C)(C)C)C(=O)O)c2-c1cc(F)c2c(c1C)CCCO2 (atropisomer, axis not shown) [Example 62, (S)-2-(tert-Butoxy)-2-((R)-1-(4-fluoro-2-methylbenzoyl)-4-(8-fluoro-5-methylchroman-6-yl)-6-methylindolin-5-yl)acetic acid]	6
COc1cc(C(=O)N2CCc3c2cc(C)c([C@H](OC(C)(C)C)C(=O)O)c3-c2cc(F)c3c(c2C)CCCO3)ccc1C(F)(F)F (atropisomer, axis not shown) [Example 176, (S)-2-(tert-Butoxy)-2-((R)-4-(8-Fluoro-5-methylchroman-6-yl)-1-(3-methoxy-4-(trifluoromethyl)benzoyl)-6-methylindolin-5-yl)acetic acid]	5
Cc1ccc(-c2c3c(cc(C)c2C(OC(C)(C)C)C(=O)O)N(C(=O)C(=O)N2CCCCC2)CC3)cc1 (stereo not shown) [Example 5, 2-(tert-Butoxy)-2-(6-methyl-1-(2-oxo-2-(piperidin-1-yl)acetyl)-4-(p-tolyl)indolin-5-yl)acetic acid]	343
Cc1cc2c(c(-c3cc(F)c4c(c3C)CCCO4)c1[C@H](OC(C)(C)C)C(=O)O)CCN2C(=O)c1cccnc1C (atropisomer, axis not shown) [Example 173, (S)-2-(tert-butoxy)-2-((R)-4-(8-fluoro-5-methylchroman-6-yl)-6-methyl-1-(2-methylnicotinoyl)indolin-5-yl)acetic acid]	13
Cc1cc2c(c(-c3cc(F)c4c(c3C)CCCO4)c1[C@H](OC(C)(C)C)C(=O)O)CCN2C(=O)c1cccc2c1OCCC2 (atropisomer, axis not shown) [Example 166, (S)-2-(tert-butoxy)-2-((R)-1-(chromane-8-carbonyl)-4-(8-fluoro-5-methylchroman-6-yl)-6-methylindolin-5-yl)acetic acid]	4
COc1ccc(C(=O)N2CCc3c2cc(C)c([C@H](OC(C)(C)C)C(=O)O)c3-c2ccc3c(c2C)CCCO3)cc1OC (atropisomer, axis not shown) [Example 186, (S)-2-(tert-Butoxy)-2-((R)-1-(3,4-dimethoxybenzoyl)-6-methyl-4-(5-methylchroman-6-yl)indolin-5-yl)acetic acid]	6
Cc1ccc(C)c(C(=O)N2CCc3c2cc(C)c([C@H](OC(C)(C)C)C(=O)O)c3-c2cc(F)c3c(c2C)CCCO3)c1 (atropisomer, axis not shown) [Example 69, (S)-2-(tert-Butoxy)-2-((R)-1-(2,5-dimethylbenzoyl)-4-(8-fluoro-5-methylchroman-6-yl)-6-methylindolin-5-yl)acetic acid]	5
Cc1cc2c(c(-c3cc(F)c4c(c3C)CCCO4)c1[C@H](OC(C)(C)C)C(=O)O)CCN2C(=O)c1ccc(Cl)cc1C(F)(F)F (atropisomer, axis not shown) [Example 156, (S)-2-(tert-Butoxy)-2-((R)-1-(4-chloro-2-(trifluoromethyl)benzoyl)-4-(8-fluoro-5-methylchroman-6-yl)-6-methylindolin-5-yl)acetic acid]	5
Cc1ccc(-c2c3c(cc(C)c2[C@H](OC(C)(C)C)C(=O)O)N(C(=O)c2ccncc2)CC3)cc1 [Example 40, (S)-2-(tert-Butoxy)-2-(1-isonicotinoyl-6-methyl-4-(p-tolyl)indolin-5-yl)acetic acid]	283
Cc1ccc(-c2c3c(cc(C)c2C(OC(C)(C)C)C(=O)O)N(S(=O)(=O)N2CCCCC2)CCC3)cc1 (stereo not shown) [Example 213, 2-(tert-Butoxy)-2-(7-methyl-1-(piperidin-1-ylsulfonyl)-5-(p-tolyl)-1,2,3,4-tetrahydroquinolin-6-yl)acetic acid]	3410
Cc1ccc(-c2c3c(cc(C)c2[C@H](OC(C)(C)C)C(=O)O)N(C(=O)c2ccccc2F)CC3)cc1 [Example 18, (S)-2-(tert-Butoxy)-2-(1-(2-fluorobenzoyl)-6-methyl-4-(p-tolyl)indolin-5-yl)acetic acid]	11
Cc1cc2c(c(-c3cc(F)c4c(c3C)CCCO4)c1[C@H](OC(C)(C)C)C(=O)O)CCN2C(=O)c1cccc2c1CCCC2 (atropisomer, axis not shown) [Example 59, (S)-2-(tert-Butoxy)-2-((R)-4-(8-fluoro-5-methylchroman-6-yl)-6-methyl-1-(5,6,7,8-tetrahydronaphthalene-1-carbonyl)indolin-5-yl)acetic acid]	6
COc1cc(F)ccc1C(=O)N1CCc2c1cc(C)c([C@H](OC(C)(C)C)C(=O)O)c2-c1ccc(C)cc1 [Example 21, (S)-2-(tert-Butoxy)-2-(1-(4-fluoro-2-methoxybenzoyl)-6-methyl-4-(p-tolyl)indolin-5-yl)acetic acid]	9
COc1ccc(C)c(C(=O)N2CCc3c2cc(C)c([C@H](OC(C)(C)C)C(=O)O)c3-c2cc(F)c3c(c2C)CCCO3)c1 (atropisomer, axis not shown) [Example 107, (S)-2-(tert-Butoxy)-2-((R)-4-(8-fluoro-5-methylchroman-6-yl)-1-(5-methoxy-2-methylbenzoyl)-6-methylindolin-5-yl)acetic acid]	5
Cc1cc2c(c(-c3cc(F)c4c(c3C)CCCO4)c1[C@H](OC(C)(C)C)C(=O)O)CCN2C(=O)c1ccccc1Cl (atropisomer, axis not shown) [Example 98, (S)-2-(tert-Butoxy)-2-((R)-1-(2-chlorobenzoyl)-4-(8-fluoro-5-methylchroman-6-yl)-6-methylindolin-5-yl)acetic acid]	2
Cc1cc2c(c(-c3cc(F)c4c(c3C)CCCO4)c1[C@H](OC(C)(C)C)C(=O)O)CCN2C(=O)C1CCC1 (atropisomer, axis not shown) [Example 161, (S)-2-(tert-Butoxy)-2-((R)-1-(cyclobutanecarbonyl)-4-(8-fluoro-5-methylchroman-6-yl)-6-methylindolin-5-yl)acetic acid]	81
Cc1cc2c(c(-c3cc(F)c4c(c3C)CCCO4)c1[C@H](OC(C)(C)C)C(=O)O)CCN2C(=O)c1ccc2c(c1)CCC2 (atropisomer, axis not shown) [Example 122, (S)-2-(tert-Butoxy)-2-((R)-1-(2,3-dihydro-1H-indene-5-carbonyl)-4-(8-fluoro-5-methylchroman-6-yl)-6-methylindolin-5-yl)acetic acid]	17
Cc1nc2cccc(C(=O)N3CCc4c3cc(C)c([C@H](OC(C)(C)C)C(=O)O)c4-c3cc(F)c4c(c3C)CCCO4)c2o1 (atropisomer, axis not shown) [Example 179, (S)-2-(tert-Butoxy)-2-((R)-4-(8-Fluoro-5-methylchroman-6-yl)-6-methyl-1-(2-methylbenzo[d]oxazole-7-carbonyl)indolin-5-yl)acetic acid]	12
Cc1cc2c(c(-c3cc(F)c4c(c3C)CCCO4)c1[C@H](OC(C)(C)C)C(=O)O)CCN2C(=O)c1cccc2c1CCCO2 (atropisomer, axis not shown) [Example 169, (S)-2-(tert-Butoxy)-2-((R)-1-(chromane-5-carbonyl)-4-(8-fluoro-5-methylchroman-6-yl)-6-methylindolin-5-yl)acetic acid]	2
COc1ccc(C)cc1C(=O)N1c2cc(C)c([C@H](OC(C)(C)C)C(=O)O)c(-c3cc(F)c4c(c3C)CCCO4)c2CC1(C)C (atropisomer, axis not shown) [Example 205, (S)-2-(tert-Butoxy)-2-((R)-4-(8-Fluoro-5-methylchroman-6-yl)-1-(2-methoxy-5-methylbenzoyl)-2,2,6-trimethylindolin-5-yl)acetic acid]	20
Cc1ccc(-c2c3c(cc(C)c2[C@H](OC(C)(C)C)C(=O)O)N(C(=O)CC2CCCCC2)CC3)cc1 [Example 25, (S)-2-(tert-Butoxy)-2-(1-(2-cyclohexylacetyl)-6-methyl-4-(p-tolyl)indolin-5-yl)acetic acid]	43
Cc1cc2c(c(-c3cc(F)c4c(c3C)CCCO4)c1[C@H](OC(C)(C)C)C(=O)O)CCN2C(=O)c1cc(Cl)ccc1F (atropisomer, axis not shown) [Example 145, (S)-2-(tert-Butoxy)-2-((R)-1-(5-chloro-2-fluorobenzoyl)-4-(8-fluoro-5-methylchroman-6-yl)-6-methylindolin-5-yl)acetic acid]	14
